Assay results as given in US20210128690A1, “METHODS OF ADMINISTERING HEPCIDIN” (La Jolla Pharmaceutical Company, priority 2016, published 2021).

Assay: hepcidin administration to human subjects (patients with sickle cell disease or hereditary hemochromatosis)
Type: in vivo
Conditions: doses of 1 mg hepcidin and 5 mg hepcidin
Text: FIG. 1 illustrates the change in serum ferritin levels at baseline and 8 days post hepcidin administration in two patients with sickle cell disease and a high ferritin serum baseline.
Efficacy at this dosing was not expected based on animal studies in mice, rats, and dogs.

CC[C@H](C)[C@@H]1NC(=O)[C@@H](NC(=O)[C@@H](NC(=O)[C@@H]2CCCN2C(=O)[C@H](Cc2ccccc2)NC(=O)[C@H](Cc2c[nH]cn2)NC(=O)[C@@H](NC(=O)[C@@H](N)CC(=O)O)[C@@H](C)O)[C@@H](C)CC)CSSC[C@@H](C(=O)N[C@@H](CCCCN)C(=O)N[C@H](C(=O)O)[C@@H](C)O)NC(=O)[C@@H]2CSSC[C@@H]3NC(=O)[C@@H]4CSSC[C@H](NC(=O)[C@H](Cc5ccccc5)NC1=O)C(=O)N[C@@H](CSSC[C@H](NC(=O)[C@H](CCCCN)NC(=O)[C@H](CO)NC(=O)[C@H](CCCNC(=N)N)NC(=O)[C@H](Cc1c[nH]cn1)NC3=O)C(=O)NCC(=O)N[C@@H](CCSC)C(=O)N2)C(=O)NCC(=O)N4 [hepcidin]
efficacy in human subjects: display efficacy
